Data taken from US7473709B2, “11β-benzaldoxime derivatives of D-homooestra-4,9-dien-3-ones” (Bayer Schering Pharma AG, priority 2005, dated 2009).

Columns and labels:
[1] = biological target: T1, Glucocorticoid receptor (GR) (Rattus norvegicus, UniProt P06536); assay: Receptor binding affinity, glucocorticoid receptor (competitive binding with 3H-dexamethasone); settings: for Glucocorticoid receptor (GR) dexamethasone = 100% (relative molar binding affinity, RBA): thymus cytosol of adrenalectomized rat, tracer 3H-dexamethasone 20 nM, reference dexamethasone = 100%
T1 construct: receptors in the cytosol from animal target organs; from tissue; host or cells: thymus cytosol of adrenalectomized rat
T1 sequence (P06536 1-795): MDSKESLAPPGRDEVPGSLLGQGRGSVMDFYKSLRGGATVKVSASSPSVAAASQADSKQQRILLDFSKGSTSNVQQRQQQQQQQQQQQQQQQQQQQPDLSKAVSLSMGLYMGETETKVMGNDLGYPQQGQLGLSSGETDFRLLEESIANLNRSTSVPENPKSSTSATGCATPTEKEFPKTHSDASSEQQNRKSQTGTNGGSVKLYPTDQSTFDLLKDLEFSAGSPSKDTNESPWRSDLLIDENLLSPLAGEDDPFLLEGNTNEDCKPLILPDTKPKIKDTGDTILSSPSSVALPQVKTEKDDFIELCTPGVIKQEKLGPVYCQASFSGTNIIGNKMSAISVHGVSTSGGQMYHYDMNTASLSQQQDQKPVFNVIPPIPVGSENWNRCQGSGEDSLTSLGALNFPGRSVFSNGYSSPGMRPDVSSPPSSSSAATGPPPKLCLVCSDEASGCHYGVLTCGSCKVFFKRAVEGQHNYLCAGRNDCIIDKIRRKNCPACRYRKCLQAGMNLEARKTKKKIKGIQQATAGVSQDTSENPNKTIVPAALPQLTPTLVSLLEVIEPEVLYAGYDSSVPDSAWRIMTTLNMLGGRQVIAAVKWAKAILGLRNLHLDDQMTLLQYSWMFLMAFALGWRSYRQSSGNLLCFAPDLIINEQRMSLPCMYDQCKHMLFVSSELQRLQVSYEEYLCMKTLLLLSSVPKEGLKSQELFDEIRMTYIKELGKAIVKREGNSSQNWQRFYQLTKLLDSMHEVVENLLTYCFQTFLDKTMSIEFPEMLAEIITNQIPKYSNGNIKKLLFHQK
Experimental: (§1) The receptor binding affinity was determined by the competitive binding of a specifically binding ^3H-labelled hormone (tracer) and the test compound to receptors in the cytosol from animal target organs, with the aim of achieving receptor saturation and reaction equilibrium.
(§2) The tracer and increasing concentrations of the test compound (competitor) were coincubated with the receptor-containing cytosol fraction at 0-4° C. for 18 h. After separation of the unbound tracer with a carbon/dextran suspension, the proportion of receptor-bound tracer was measured for each concentration and the IC50 was determined from the concentration series.
(§3) The following incubation conditions were chosen for the individual receptor types:
Thymus cytosol of the adrenalectomized rat, thymi stored at −30° C.; buffer: TED. Tracer: ^3H-dexamethasone, 20 nM; reference substance: dexamethasone.

[2] = biological target: T2, Progesterone receptor (PR) (Oryctolagus cuniculus, UniProt P06186); assay: Receptor binding affinity, progesterone receptor (competitive binding with 3H-ORG 2058); settings: uterus cytosol of oestradiol-primed rabbit; tracer 3H-ORG 2058 5 nM; reference progesterone = 100%
T2 construct: receptors in the cytosol from animal target organs; from tissue; host or cells: uterus cytosol of oestradiol-primed rabbit
T2 sequence (P06186 1-930): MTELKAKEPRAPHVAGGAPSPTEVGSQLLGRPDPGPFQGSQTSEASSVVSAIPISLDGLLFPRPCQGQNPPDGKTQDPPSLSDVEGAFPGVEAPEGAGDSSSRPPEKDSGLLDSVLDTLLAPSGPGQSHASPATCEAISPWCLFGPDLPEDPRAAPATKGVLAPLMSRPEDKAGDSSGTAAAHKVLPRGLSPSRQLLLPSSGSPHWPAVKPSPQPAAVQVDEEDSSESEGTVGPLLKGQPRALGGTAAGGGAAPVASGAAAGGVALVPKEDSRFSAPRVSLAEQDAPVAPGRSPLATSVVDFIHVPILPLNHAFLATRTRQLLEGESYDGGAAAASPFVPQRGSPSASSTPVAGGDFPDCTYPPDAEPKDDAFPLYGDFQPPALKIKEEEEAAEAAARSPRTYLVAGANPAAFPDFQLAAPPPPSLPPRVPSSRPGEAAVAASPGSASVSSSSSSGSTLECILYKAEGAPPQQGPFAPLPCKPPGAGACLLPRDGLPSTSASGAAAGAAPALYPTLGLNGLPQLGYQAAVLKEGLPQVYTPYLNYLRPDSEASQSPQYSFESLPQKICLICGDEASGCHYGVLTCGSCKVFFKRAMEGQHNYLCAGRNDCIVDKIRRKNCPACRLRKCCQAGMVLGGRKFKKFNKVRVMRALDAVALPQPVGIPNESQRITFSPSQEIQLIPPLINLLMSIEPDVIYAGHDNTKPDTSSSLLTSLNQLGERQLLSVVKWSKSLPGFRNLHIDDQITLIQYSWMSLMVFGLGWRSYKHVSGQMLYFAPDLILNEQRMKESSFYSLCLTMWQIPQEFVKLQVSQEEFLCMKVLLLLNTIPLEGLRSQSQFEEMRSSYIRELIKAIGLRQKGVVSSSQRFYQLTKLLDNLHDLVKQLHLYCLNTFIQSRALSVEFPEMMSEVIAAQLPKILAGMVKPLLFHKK
Experimental: as §1, §2, §3
Uterus cytosol of the oestradiol-primed rabbit, homogenized in TED buffer (20 mM Tris/HCI, pH 7.4; 1 mM ethylenediaminetetraacetate, 2 mM dithiothreitol) containing 250 mM sucrose; kept at −30° C.

**Q.** Which “Glucocorticoid receptor (GR) dexamethasone = 100% (relative molar binding affinity, RBA)” value [1] does the source give for `CC#C[C@]1(O)CC[C@H]2[C@@H]3CCC4=CC(=O)CCC4=C3[C@@H](c3ccc(N(C)C)cc3)C[C@@]21C` [RU 38486, mifepristone] here?
**A.** The value was 683%.

**Q.** What does the source list for “4-[17aβ-Methoxy-17aα-(methoxymethyl)-17a-homo-3-oxooestra-4,9-dien-11β-yl]benzaldehyde (1E)-[O-(ethylamino)carbonyl]oxime [Example 6]”?
**A.** Ratio GR/PR ([1]; ratio of RBA at GR to RBA at PR): 2.8; Glucocorticoid receptor (GR) dexamethasone = 100% (relative molar binding affinity, RBA) [1]: 450%; Progesterone receptor (PR) progesterone = 100% (relative molar binding affinity, RBA) [2]: 158%
